These results are taken from article PMC9154761, “Development of Praziquantel sulphonamide derivatives as antischistosomal drugs” (Journal of Enzyme Inhibition and Medicinal Chemistry, 2022).

The target in one assay is T1, hCA I (Homo sapiens, UniProt P00915).
T1 construct: made in house
The assay can be described thus: stopped flow CO2 hydrase assay, hCA I. It is filed as biochemical. The settings on record: mean from three different assays. Here is the method: (§1) An Applied Photophysics stopped-flow instrument was used to assay the CA catalysed CO2 hydration activity. […] The CO2 concentrations ranged from 1.7 to 17 mM for the determination of the kinetic parameters and inhibition constants. […] For each inhibitor, at least six traces of the initial 5–10% of the reaction were used to determine the initial velocity. The uncatalyzed rates were determined in the same manner and subtracted from the total observed rates. Stock solutions of the inhibitor (0.1 mM) were prepared in distilled–deionized water and dilutions up to 0.01 nM were done thereafter with the assay buffer. Inhibitor and enzyme solutions were preincubated together for 15 min at room temperature prior to the assay, to allow for the formation of the E–I complex. The inhibition constants were obtained by non-linear least-squares methods using PRISM 3 and the Cheng-Prusoff equation as reported earlier and represent the mean from at least three different determinations. All CA isoforms were recombinant proteins obtained in house, as reported earlier[14]^,[26–29].

The target in the next assay is T2, hCA IX (Homo sapiens, UniProt Q16790).
T2 construct: made in house
The assay can be described thus: stopped flow CO2 hydrase assay, hCA IX. It is filed as biochemical. Particulars: mean from three different assays. As to the method: as §1

The target of a further assay is T3, hCA II (Homo sapiens, UniProt P00918).
T3 construct: made in house
The assay can be described thus: stopped flow CO2 hydrase assay, hCA II. It is filed as biochemical. The settings on record: mean from three different assays, read-out: Ki hCAII. Here is the method: as §1

Another assay addresses SmCA (Schistosoma mansoni, UniProt A0A3Q0KSG2). Nature of the assay: biochemical. The settings on record: stopped flow CO2 hydrase assay; mean from three different assays; read-out: Ki SmCA. Here is the method:
(§2) An Applied Photophysics stopped-flow instrument was used to assay the CA catalysed CO2 hydration activity. […] The uncatalyzed rates were determined in the same manner and subtracted from the total observed rates. Stock solutions of the inhibitor (0.1 mM) were prepared in distilled–deionized water and dilutions up to 0.01 nM were done thereafter with the assay buffer. Inhibitor and enzyme solutions were preincubated together for 15 min at room temperature prior to the assay, to allow for the formation of the E–I complex. The inhibition constants were obtained by non-linear least-squares methods using PRISM 3 and the Cheng-Prusoff equation as reported earlier and represent the mean from at least three different determinations. All CA isoforms were recombinant proteins obtained in house, as reported earlier[14]^,[26–29].

A further assay addresses LdCA (Leishmania donovani, UniProt A0A3S5H5R2). The assay can be described thus: biochemical. Particulars: stopped flow CO2 hydrase assay; mean from three different assays; read-out: Ki LdCA. As to the method:
as §2

In the next assay the test system is S. mansoni adult worms. Nature of the assay: In vitro antischistosomal activity against adult S. mansoni worms. The format is cell-based, Schistosoma mansoni. The settings on record: 10 μM, 72 h, viability via microscopy. Here is the method: (§3) In vitro studies were carried out in accordance with Swiss national and cantonal regulations on animal welfare under the permission number 2070. The drug sensitivity assays with S. mansoni (adult and newly transformed schistosomules (NTS)) were carried out as described recently. Briefly, to obtain NTS, cercariae were collected from infected Biomphalaria glabrata snails and were mechanically transformed. Adult S. mansoni worms were collected by dissecting the mesenteric veins of infected mice at day 49 postinfection. Approximately 30–40 NTS were incubated with the respective test drug in 250 µL of M199 medium (Gibco, Waltham, MA) supplemented with 5% (v/v) foetal calf serum (FCS) (Bioconcept AG, Switzerland), 1% (v/v) penicillin/streptomycin solution (Sigma–Aldrich, Switzerland) and 1% (v/v) antibacterial/antifungal solution for up to 72 h at 37 °C and 5% CO2. The drug was tested at 10 µM in triplicate and repeated once. Three adult S. mansoni were incubated in a final volume of 2 mL rpmI 1640 supplemented with 5% (v/v) FCS and 1% (v/v) penicillin/streptomycin at 37 °C and 5% CO2 for 72 h at 10 µM. The experiment was conducted in duplicate. Worms were judged via microscopic readout 72 h after incubation; they were scored according to phenotypic reference points such as motility, morphology and granularity (scores from 0 to 3).

In a further assay the target is T4, hCA IV (Homo sapiens, UniProt P22748).
T4 construct: made in house
Nature of the assay: stopped flow CO2 hydrase assay, hCA IV. It is filed as biochemical. The settings on record: mean from three different assays. Here is the method: as §1

Assay [1] relates to newly transformed schistosomula (NTS). The assay can be described thus: In vitro antischistosomal activity against newly transformed schistosomula (NTS). The format is cell-based, Schistosoma mansoni. Particulars: 10 μM, after 72 h of exposure, viability via microscopy. As to the method: as §3

SmCA, sequence (A0A3Q0KSG2 entry or part of it): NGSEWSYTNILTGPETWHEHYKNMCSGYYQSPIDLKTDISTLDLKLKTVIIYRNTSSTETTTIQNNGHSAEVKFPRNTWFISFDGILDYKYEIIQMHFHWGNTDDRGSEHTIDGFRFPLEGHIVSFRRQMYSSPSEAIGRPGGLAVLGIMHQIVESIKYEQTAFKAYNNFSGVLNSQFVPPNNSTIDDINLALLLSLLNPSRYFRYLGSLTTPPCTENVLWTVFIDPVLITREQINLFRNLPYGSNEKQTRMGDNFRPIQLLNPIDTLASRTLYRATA
T1 sequence (P00915 whole entry): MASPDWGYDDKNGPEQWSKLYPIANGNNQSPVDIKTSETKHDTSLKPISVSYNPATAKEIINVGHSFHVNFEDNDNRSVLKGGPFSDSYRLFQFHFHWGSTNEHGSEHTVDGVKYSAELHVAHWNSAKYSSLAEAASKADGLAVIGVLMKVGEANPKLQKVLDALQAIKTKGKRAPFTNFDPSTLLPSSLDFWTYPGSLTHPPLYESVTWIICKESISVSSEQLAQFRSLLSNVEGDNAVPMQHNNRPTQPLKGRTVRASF
T4 sequence (P22748 19-312): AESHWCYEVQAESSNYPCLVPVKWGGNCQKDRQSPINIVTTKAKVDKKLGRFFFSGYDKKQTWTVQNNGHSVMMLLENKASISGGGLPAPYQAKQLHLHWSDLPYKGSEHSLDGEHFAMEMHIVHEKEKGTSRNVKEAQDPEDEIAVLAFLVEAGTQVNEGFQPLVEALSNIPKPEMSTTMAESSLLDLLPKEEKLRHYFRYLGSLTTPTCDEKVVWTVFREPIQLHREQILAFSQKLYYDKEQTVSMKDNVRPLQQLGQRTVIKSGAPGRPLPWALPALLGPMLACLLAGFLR
LdCA, sequence (A0A3S5H5R2 entry or part of it): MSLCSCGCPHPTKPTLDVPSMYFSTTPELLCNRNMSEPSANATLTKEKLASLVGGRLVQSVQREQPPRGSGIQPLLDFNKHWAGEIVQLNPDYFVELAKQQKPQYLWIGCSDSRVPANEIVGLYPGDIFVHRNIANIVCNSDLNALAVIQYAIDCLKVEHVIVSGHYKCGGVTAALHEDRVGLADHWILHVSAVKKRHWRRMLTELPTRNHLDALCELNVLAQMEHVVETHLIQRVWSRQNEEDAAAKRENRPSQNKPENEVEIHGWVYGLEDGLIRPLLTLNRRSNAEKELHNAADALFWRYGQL

Take `NS(=O)(=O)c1ccc(CCC(=O)N2CC(=O)N3CCc4ccccc4C3C2)cc1` (centres unmarked) [Compound 4b, 4–(3-Oxo-3–(4-oxo-1,3,4,6,7,11b-hexahydro-2H-pyrazino[2,1-a]isoquinolin-2-yl)propyl) benzenesulfonamide]: the inhibition constant Ki on hCA I stood at 67.7 ± 5.1 nM; at hCA IX, 139 ± 8 nM; at hCA II it was 17.5 ± 1 nM; at SmCA, 93.6 ± 7 nM; on LdCA it was 417 ± 33.9 nM; at hCA IV, 785 ± 58.3 nM. In addition, the “activity against adult S. mansoni worms” value with S. mansoni adult worms turned out to be 20.9%.

Take `NS(=O)(=O)c1ccc(CCNC(=O)N2CC(=O)N3CCc4ccccc4C3C2)cc1` (centres unmarked) [Compound 34c, 4-Oxo-N-(4-sulfamoylphenethyl)-1,3,4,6,7,11b-hexahydro-2H-pyrazino[2,1-a]isoquinoline-2-carboxamide]: the Ki amounted to 20.5 ± 2 nM at hCA I; 102 ± 5.9 nM at hCA IX; 5.8 ± 0.3 nM at hCA II; 5.6 ± 0.5 nM on SmCA; 362 ± 27.3 nM on LdCA; 4180 ± 442 nM at hCA IV. The “activity against NTS” value in assay [1] is recorded as “over 30%”.

Regarding `NS(=O)(=O)c1ccc(NC(=O)NCc2ccc(C(=O)N3CC(=O)N4CCc5ccccc5C4C3)cc2)cc1` (centres unmarked) [Compound 28a, 4–(3-(4–(4-Oxo-1,3,4,6,7,11b-hexahydro-2H-pyrazino[2,1-a]isoquinoline-2-carbonyl)benzyl)ureido)benzenesulfonamide], the Ki on hCA I came to 74.4 ± 3.9 nM; on hCA IX, 31.8 ± 1.8 nM; at hCA II, 8.2 ± 0.7 nM; at SmCA it was 614 ± 50.6 nM; at LdCA, 340 ± 33.9 nM; on hCA IV it was 548 ± 29.6 nM. Also, in assay [1], the “activity against NTS” value was “over 30%”.

On to `NS(=O)(=O)c1ccc(NC(=O)N2CC(=O)N3CCc4ccccc4C3C2)cc1` (centres unmarked) [Compound 34a, 4-Oxo-N-(4-sulfamoylphenyl)-1,3,4,6,7,11b-hexahydro-2H-pyrazino[2,1-a]isoquinoline-2-carboxamide], for which the Ki turned out to be 70.4 ± 5.7 nM on hCA I; 24.7 ± 1.44 nM at hCA IX; 8.4 ± 0.8 nM on hCA II; 59.6 ± 4.3 nM on SmCA; 253 ± 19.4 nM at LdCA; 4410 ± 371 nM at hCA IV. The “activity against NTS” value in assay [1] is on record as “over 30%”. Also, in the assay with S. mansoni adult worms, the “activity against adult S. mansoni worms” value was found to be 30.6%.

Usually Ki stands for a dissociation constant, usually derived from enzyme kinetics or from competition with a known ligand.
